In patent US20140256771A1, “COMPOUNDS THAT MODULATE INTRACELLULAR CALCIUM” (CalciMedica, Inc., priority 2011, published 2014):
Read-outs that look alike come from different tables or passages of the source.

Legend:
Jurkat cells [1] = details: cited from earlier work
Jurkat cells [2] = details: cited from earlier work; remark: listed apart in the source
RBL-2H3 cells = test: Fluorescence-based assay of store-operated calcium entry in RBL-2H3 cells; format: cell-based, rat; details: Rattus norvegicus, RBL-2H3, thapsigargin store depletion, 50% inhibition of Upslope, read-out: RBL-2H3 (IC50, μmol)
Description: B. Fluorescence-based Assay of Store-Operated Calcium Entry in RBL-2H3Cells.
RBL-2H3 cells are obtained from ATCC and maintained in complete medium with 10% FBS at 37° C./6% CO2.
The day prior to performing the assay, RBL-2H3 cells are plated in 50 μL of complete medium in a 384 well plate. Cells are grown at 37° C./6% CO2 overnight and grow to 50-60% confluence by the next day. On the assay day, 1.5 μM Fluo-4-AM dye (Invitrogen) in complete medium is added and incubated for 1 hour at RT. Cells are washed twice in Ca^2+-free HBSS buffer and 35 μL Ca^2+-free HBSS buffer is added to each well. 10 μL of a test compound prepared in a Ca^2+-free HBSS solution at 4.5× of the desired concentration is added to a well and incubated for 5 minutes at RT. 10 μL of thapsigargin prepared in a Ca^2+-free HBSS solution at 5.5× of the desired concentration (5.5 uM) is added to each well and incubated for an additional 25 minutes. The initial baseline fluorescence signal is measured with a FLIPR^384 (Molecular Devices) plate reader. 5 μL of 12× calcium in HBSS (12 mM) is added and changes in cellular fluorescence are measured with the FLIPR^384 plate reader. In each well, the change in the fluorescent signal as a function of time due to calcium entry into the cell is determined by calculating the difference between the fluorescent signal measured 7 seconds after calcium addition and the initial baseline fluorescence signal at time zero (t=0). This parameter is designated Upslope. The IC50 value is calculated as the concentration at which 50% of the Upslope is inhibited.

Orai1/STIM1 = target: T1, Orai1/STIM1 (Homo sapiens, UniProt Q96D31); test: Fluorescence-based assay of store-operated calcium entry in Orai1/STIM1 stable cells; format: cell-based; details: HEK-293 cells stably expressing human STIM1 and Orai1, 50% inhibition of Peak-Basal fluo-4 signal, read-out: Orai1/STIM1 (IC50, μmol)
T1 construct: expressed in transfected cells; host or cells: HEK-293
T1 sequence (Q96D31 whole entry): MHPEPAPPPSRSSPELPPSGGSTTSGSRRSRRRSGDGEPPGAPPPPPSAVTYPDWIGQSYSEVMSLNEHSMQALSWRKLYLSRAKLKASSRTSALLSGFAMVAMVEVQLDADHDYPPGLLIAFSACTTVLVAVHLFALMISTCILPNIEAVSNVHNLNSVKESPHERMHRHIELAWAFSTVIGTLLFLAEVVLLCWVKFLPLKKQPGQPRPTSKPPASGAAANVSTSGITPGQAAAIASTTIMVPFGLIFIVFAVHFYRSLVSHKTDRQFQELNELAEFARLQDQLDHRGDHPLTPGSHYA
Description: A. Fluorescence-based Assay of Store-Operated Calcium Entry in Orai1/STIM1 Stable Cells.
Cells stably expressing recombinant human STIM1 and Orai1 are generated by transfecting a human Orai1 expression plasmid (pcDNA3.1-Orai1-cmyc) into HEK-293 cells stably overexpressing human STIM1 (Roos et al. 2005 JCB 169(3): 435-445). Colonies of cells stably expressing both STIM1 and Orai1 proteins are selected and then subcloned by limiting dilution. Cells were cultured at 37° C./6% CO2 in complete medium with 10% FBS and appropriate selection markers.
The day prior to performing the assay Orai1/STIM1 stable cells are plated in 50 μL of complete medium at 90-95% confluence in a 384 well plate. Cells are grown at 37° C./6% CO2 overnight. On the day of the assay, 1.5 μM fluo-4-AM (Invitrogen) in complete medium is added to the cells, which are then incubated for 1 hour at RT. Cells are washed once in Ca^2+-free HBSS (Hank's buffered saline solution) and 35 μl of Ca^2+-free HBSS is added to each well. Test compounds are added to wells in a 10 μL Ca^2+-free HBSS solution, prepared at 4.5× the desired final concentration, and incubated for 30 minutes at RT. The initial baseline fluorescence signal is then measured with a FLIPR^384 (Molecular Devices) plate reader. Calcium entry is initiated by adding 5 μl of 10× CaCl2 (10 mM) in HBSS, and changes in cellular fluorescence are measured with the FLIPR^384 plate reader. In each well, the magnitude of the fluorescence signal as a result of calcium entry into the cell is determined by calculating the difference between the peak fluorescence signal measured after calcium addition and the initial baseline fluorescence signal (designated Peak-Basal). IC50 values are typically calculated as the concentration that inhibited 50% of the Peak-Basal signal (Table A).

STIM1 and Orai1 = STIM1 and Orai1 (Homo sapiens, UniProt Q96D31); details: HEK293 cells co-expressing STIM1 and Orai1; cited from earlier work
Sequence of STIM1 and Orai1 (Q96D31 whole entry, species assumed): as the sequence (Q96D31 whole entry) above

Cc1nnsc1C(=O)Nc1ccc(-n2nc(C(F)(F)F)cc2C(F)(F)F)cc1 [BTP-2]
inhibition of proliferation (Jurkat cells [1]): inhibits
inhibition of SOCE (Jurkat cells [2]): inhibits

Cn1nc(C(F)(F)F)cc1-c1ccc(NCc2c(Cl)cnn2C)cc1
IC50 (RBL-2H3 cells; Table iii): < 600 nM
IC50 (Orai1/STIM1; Table iii): 600 to 1200 nM

CCn1nc(C(F)(F)F)cc1-c1ccc(NCc2c(F)cc(F)cc2F)cc1F
IC50 (RBL-2H3 cells; Table iii): < 600 nM
IC50 (Orai1/STIM1; Table iii): 600 to 1200 nM

Cc1sc(C(F)(F)F)nc1-c1ccc(NCc2c(F)cccc2F)cc1
IC50 (RBL-2H3 cells; Table iii): < 600 nM
IC50 (Orai1/STIM1; Table iii): < 600 nM

Cc1cc2c(cc1-c1ccc(NCc3ccccc3F)cc1)OC(F)(F)O2
IC50 (RBL-2H3 cells; Table iii): < 600 nM
IC50 (Orai1/STIM1; Table iii): > 1200 nM

Cc1cc(C(F)(F)F)nn1-c1ccc(NC(=O)c2ccccc2F)cc1
IC50 (RBL-2H3 cells; Table iv): < 600 nM
IC50 (Orai1/STIM1; Table iv): < 600 nM

Cn1nc(C(F)(F)F)cc1-c1ccc(NCc2ccccc2F)cc1
IC50 (RBL-2H3 cells; Table iii): < 600 nM
IC50 (Orai1/STIM1; Table iii): < 600 nM

Cc1nc(C(F)(F)F)cn1-c1ccc(NC(=O)c2c(F)cccc2F)cc1
IC50 (RBL-2H3 cells; Table iv): < 600 nM
IC50 (Orai1/STIM1; Table iv): > 1200 nM

Cc1cc2c(cc1-c1ccc(NC(=O)c3c(F)cccc3F)cc1)OC(F)(F)O2
IC50 (RBL-2H3 cells; Table iv): < 600 nM
IC50 (Orai1/STIM1; Table iv): > 1200 nM

Cc1cc(C(F)(F)F)nn1-c1ccc(NCc2ccccc2F)cc1
IC50 (RBL-2H3 cells; Table iii): < 600 nM
IC50 (Orai1/STIM1; Table iii): < 600 nM

Cc1cc(C(F)(F)F)nn1-c1ccc(NCc2c(F)cc(F)cc2F)cc1
IC50 (RBL-2H3 cells; Table iii): < 600 nM
IC50 (Orai1/STIM1; Table iii): < 600 nM

Cc1cc(C(F)(F)F)nn1-c1ccc(NCc2c(F)cncc2F)cc1
IC50 (RBL-2H3 cells; Table iii): < 600 nM
IC50 (Orai1/STIM1; Table iii): 600 to 1200 nM

CCn1nc(C(F)(F)F)cc1-c1ccc(NCc2ccccc2F)cc1F
IC50 (RBL-2H3 cells; Table iii): < 600 nM
IC50 (Orai1/STIM1; Table iii): < 600 nM

NCCOB(c1ccccc1)c1ccccc1 [2-aminoethoxydiphenylborate]
block of store dependent Ca2+ entry (STIM1 and Orai1): completely blocked

Cn1nc(C(F)(F)F)cc1-c1ccc(NCc2c(F)cccc2F)cc1F
IC50 (RBL-2H3 cells; Table iii): < 600 nM
IC50 (Orai1/STIM1; Table iii): < 600 nM

Cn1nc(C(F)(F)F)cc1-c1ccc(NC(=O)c2c(F)cc(F)cc2F)cc1
IC50 (RBL-2H3 cells; Table iv): < 600 nM
IC50 (Orai1/STIM1; Table iv): < 600 nM

Cn1nc(C(F)(F)F)cc1-c1ccc(NC(=O)c2c(F)cncc2F)cc1F
IC50 (RBL-2H3 cells; Table iv): < 600 nM
IC50 (Orai1/STIM1; Table iv): < 600 nM

CCn1nc(C(F)(F)F)cc1-c1ccc(NC(=O)c2ccccc2F)cc1F
IC50 (RBL-2H3 cells; Table iv): < 600 nM
IC50 (Orai1/STIM1; Table iv): < 600 nM

Cc1cc(C(F)(F)F)nn1-c1ccc(NC(=O)c2c(F)cccc2F)cc1
IC50 (RBL-2H3 cells; Table iv): < 600 nM
IC50 (Orai1/STIM1; Table iv): 600 to 1200 nM

Cc1nn(C(F)F)cc1-c1ccc(NC(=O)c2ccccc2F)cc1F
IC50 (RBL-2H3 cells; Table iv): 600 to 1200 nM
IC50 (Orai1/STIM1; Table iv): < 600 nM

Cc1cc(F)ccc1C(=O)Nc1ccc(-n2cc(C(F)(F)F)nc2C)c(F)c1
IC50 (RBL-2H3 cells; Table iv): < 600 nM
IC50 (Orai1/STIM1; Table iv): > 1200 nM

Cc1nn(C(F)F)cc1-c1ccc(NC(=O)c2c(F)cc(F)cc2F)cc1F
IC50 (RBL-2H3 cells; Table iv): < 600 nM
IC50 (Orai1/STIM1; Table iv): < 600 nM

Cc1nc(C(F)(F)F)cn1-c1ccc(NC(=O)c2c(F)cc(F)cc2F)cc1
IC50 (RBL-2H3 cells; Table iv): < 600 nM
IC50 (Orai1/STIM1; Table iv): > 1200 nM

Cc1cccc(F)c1C(=O)Nc1ccc(-c2nc(C(F)(F)F)sc2C)cc1
IC50 (RBL-2H3 cells; Table iv): < 600 nM
IC50 (Orai1/STIM1; Table iv): < 600 nM

Cc1nc(C(F)(F)F)cn1-c1ccc(NC(=O)c2ccccc2F)cc1F
IC50 (RBL-2H3 cells; Table iv): < 600 nM
IC50 (Orai1/STIM1; Table iv): > 1200 nM

Cc1cc2c(cc1-c1ccc(NC(=O)c3ccccc3F)cc1)OC(F)(F)O2
IC50 (RBL-2H3 cells; Table iv): < 600 nM
IC50 (Orai1/STIM1; Table iv): 600 to 1200 nM

Cc1nc(C(F)(F)F)cn1-c1ccc(NCc2c(F)cccc2F)cc1F
IC50 (RBL-2H3 cells; Table iii): < 600 nM
IC50 (Orai1/STIM1; Table iii): < 600 nM

Cc1cc2c(cc1-c1ccc(NC(=O)c3scnc3C)cc1)OC(F)(F)O2
IC50 (RBL-2H3 cells; Table iv): < 600 nM
IC50 (Orai1/STIM1; Table iv): 600 to 1200 nM

Cn1nc(C(F)(F)F)cc1-c1ccc(NC(=O)c2c(F)cncc2F)c(F)c1
IC50 (RBL-2H3 cells; Table iv): < 600 nM
IC50 (Orai1/STIM1; Table iv): < 600 nM

Cc1cc2c(cc1-c1ccc(NC(=O)c3c(F)cncc3F)cc1)OC(F)(F)O2
IC50 (RBL-2H3 cells; Table iv): < 600 nM
IC50 (Orai1/STIM1; Table iv): > 1200 nM

Cn1nc(C(F)(F)F)cc1-c1ccc(NC(=O)c2ccc(F)cc2F)cc1F
IC50 (RBL-2H3 cells; Table iv): < 600 nM
IC50 (Orai1/STIM1; Table iv): < 600 nM

CCn1nc(C(F)(F)F)cc1-c1ccc(NC(=O)c2c(F)cc(F)cc2F)cc1F
IC50 (RBL-2H3 cells; Table iv): < 600 nM
IC50 (Orai1/STIM1; Table iv): 600 to 1200 nM

Cc1cc2c(cc1-c1ccc(NCc3ccccc3F)cc1F)OC(F)(F)O2
IC50 (RBL-2H3 cells; Table iii): < 600 nM
IC50 (Orai1/STIM1; Table iii): > 1200 nM

Cn1nc(C(F)(F)F)cc1-c1ccc(NC(=O)c2c(F)cncc2F)cc1
IC50 (RBL-2H3 cells; Table iv): < 600 nM
IC50 (Orai1/STIM1; Table iv): < 600 nM

Cn1nc(C(F)(F)F)cc1-c1ccc(NCc2ccc(F)cc2F)cc1F
IC50 (RBL-2H3 cells; Table iii): < 600 nM
IC50 (Orai1/STIM1; Table iii): < 600 nM

Cn1nc(C(F)(F)F)cc1-c1ccc(NCc2c(F)cncc2F)c(F)c1
IC50 (RBL-2H3 cells; Table iii): < 600 nM
IC50 (Orai1/STIM1; Table iii): 600 to 1200 nM

Cc1cc(C(F)(F)F)nn1-c1ccc(NCc2c(F)cccc2F)cc1
IC50 (RBL-2H3 cells; Table iii): < 600 nM
IC50 (Orai1/STIM1; Table iii): < 600 nM

Cc1cc(C(F)(F)F)nn1-c1ccc(NCc2ccc(F)cc2F)cc1
IC50 (RBL-2H3 cells; Table iii): < 600 nM
IC50 (Orai1/STIM1; Table iii): 600 to 1200 nM

Cn1nc(C(F)(F)F)cc1-c1ccc(NCc2c(F)cccc2F)c(F)c1
IC50 (RBL-2H3 cells; Table iii): < 600 nM
IC50 (Orai1/STIM1; Table iii): < 600 nM

Cn1nc(C(F)(F)F)cc1-c1c(F)cc(NC(=O)c2ccc(F)cc2F)cc1F
IC50 (RBL-2H3 cells; Table iv): < 600 nM
IC50 (Orai1/STIM1; Table iv): < 600 nM

Cc1nc(C(F)(F)F)cn1-c1ccc(NC(=O)c2ccccc2F)cc1
IC50 (RBL-2H3 cells; Table iv): < 600 nM
IC50 (Orai1/STIM1; Table iv): 600 to 1200 nM

Cc1sc(C(F)(F)F)nc1-c1ccc(NCc2ccccc2F)cc1
IC50 (RBL-2H3 cells; Table iii): < 600 nM
IC50 (Orai1/STIM1; Table iii): < 600 nM

Cc1cc2c(cc1-c1ccc(NC(=O)c3c(F)cncc3F)cc1F)OC(F)(F)O2
IC50 (RBL-2H3 cells; Table iv): < 600 nM
IC50 (Orai1/STIM1; Table iv): > 1200 nM

Cc1nn(C(F)F)cc1-c1ccc(NC(=O)c2c(F)cccc2F)cc1
IC50 (RBL-2H3 cells; Table iv): < 600 nM
IC50 (Orai1/STIM1; Table iv): < 600 nM

Cc1cc2c(cc1-c1ccc(NCc3c(F)cccc3F)cc1F)OC(F)(F)O2
IC50 (RBL-2H3 cells; Table iii): < 600 nM
IC50 (Orai1/STIM1; Table iii): > 1200 nM
